“Also recorded” adds a separate entry of the source.
Legend:
[1] = system: MCF-7 human breast cancer cells; experiment: MCF-7 human breast cancer xenograft growth in nude mice; format: in vivo, mouse; settings: 50 μg daily s.c.
Source text: The cultures were free of mycoplasma and pathogenic murine viruses (assayed by Microbiological Associates, Bethesda, Md.). Female athymic NCr-nu/nu mice were obtained from the NCI-Frederick Cancer Research Facility (Frederick, Md.). The mice were maintained in specific-pathogen-free conditions in a facility approved by the American Association for Accreditation of Laboratory Animal Care. […] A 60-day release pellet containing […] 17-β estradiol (Innovative Research of America, Toledo, Ohio) was implanted s.c. in each animal. After 20 days the 17β estradiol […] removed from one group, and these mice were not treated further.

breast cancer [2] = experiment: Response of PET-imaged patients to tamoxifen treatment; format: in vivo, human
breast cancer [3] = settings: unselected patients with breast cancer; cited from earlier work
[4] = Acute/immediate toxicity following i.v. injection in BALB/c mice; settings: mouse, in vivo, iv
Method: Acute toxicity studies were performed in BALB/c female mice with doses tested at 20, 50 and 200 mg/kg (i.v., n=5 mice per dose).

SMILES | ER(+) MCF-7 tumor growth (in words) [1] | Response of TX treat. (breast cancer [2]; patient 1) | Response of TX treat. (breast cancer [2]; patient 2) | Response of TX treat. (breast cancer [2]; patient 3) | Response of TX treat. (breast cancer [2]; patient 4) | Response of TX treat. (breast cancer [2]; patient 5) | Response of TX treat. (breast cancer [2]; patient 7) | Response of TX treat. (breast cancer [2]; patient 9) | Response of TX treat. (breast cancer [2]; patient 10) | Response to tamoxifen therapy (in words) (breast cancer [2]; three patients with tumor uptake) | Positive therapy results (breast cancer [3]) [%] | MTD [4] [mg/kg]
CC/C(=C(\c1ccccc1)c1ccc(OCCN(C)C)cc1)c1ccccc1 [Compound I, Tamoxifen] | reduced ER(+) breast tumor growth; also recorded: growth of the MCF-7 tumors was greatly reduced | poor | poor | good | poor | good | poor | poor | good | positive response to tamoxifen therapy | 30 | –
CCN(CC)CCOc1ccc(C(=C(CCCI)c2ccccc2)c2ccccc2)cc1 [iodotamoxifen] | reduced ER(+) breast tumor growth; also recorded: growth of the MCF-7 tumors was greatly reduced | – | – | – | – | – | – | – | – | – | – | 50

Reference: patent publication US6096874A (Board of Regents, the University of Texas System, priority 1995, dated 2000)
